Measured values taken from US20220389058A1, “PEPTIDES AND COMPOSITIONS FOR USE IN COSMETICS AND MEDICINE” (LIPOTRUE, S.L., priority 2019, published 2022).

Columns and labels:
[1] = tested on: IL-33; assay: Production of protein IL-33 in HDFa cells stimulated with IFNγ, ELISA (Example 8); type: cell-based, human; settings: HDFa cells exposed to IFNγ (300 U/mL), 0.005, 0.01 and 0.05 mg/mL, 24 hours, cell lysates
Description: Adult human dermal fibroblasts (HDFa) were seeded on 24-well plate at concentration of 1×10^5 cells/mL in their corresponding growth media and incubated for 24 hours in standard culture conditions; at that time, three different concentrations (0.005, 0.01 and 0.05 mg/mL) of the Ac-SEQ ID NO: 1-NH2 were added in presence of IL-33-induction stimulus (IFNγ, 300 U/mL). Cells without stimuli were also included as basal group. Positive control group was cells treated with 300 U/mL of IFNγ, but without being treated with a peptide of the present invention. 24 hours later, conditioned media was collected, and cells processed for protein extraction.
IL-33 levels in the cell lysates were analysed with a commercial ELISA kit (DuoSet ELISA. R&D). Absorbances were measured with an automated spectrophotometer plate-reader.

[2] = tested on: HDFa cells; assay: Expression of genes related with collagen production and extracellular matrix, RT-qPCR in HDFa (Example 10); type: cell-based, Human; settings: 0.01 mg/mL
Description: (§1) A stock solution of the peptide was prepared in water at 1 mg/mL. Working solution was freshly prepared at the specified concentration from stock solution in the corresponding supplemented medium.
RNA (ribonucleic acid) extraction and RT-qPCR (reverse transcription quantitative polymerase chain reaction) were performed. Briefly, HDFa cells were seeded in duplicate (n=2) in 6-well plates at a density of 4×10^5 cells/well and maintained at standard culture conditions (106 Medium supplemented with 1% (v/v) LSGS; 37° C., 95% room humidity, 5% CO2) for 24 hours. Then, cells were treated with peptide Ac-SEQ ID NO: 1-NH2 at the concentration of 0.01 mg/mL for 24 and 48 hours. Untreated cells were used as basal or negative control.
(§2) Cells were finally lysed, and replicates were pooled together for RNA extraction using Qiagen RNeasy Mini kit following manufacturer's instructions. Purified RNAs were used to generate the corresponding cDNAs (complementary deoxyribonucleic acids) by reverse transcription using a commercial kit High capacity cDNA reverse transcription kit (Applied Biosystems) which served as templates for amplification. RT-qPCR was performed with the panel of appropriate TaqMan assay probes for genes shown in table 5 (plus GAPDH—Glyceraldehyde 3-phosphate dehydrogenase—that was used as housekeeping gene) and 2×gene expression Master Mix using StepOne plus Real-Time PCR instrument. Amplification included 40 cycles of: 15 seconds at 95° C. (denaturation) and 1 minute at 60° C. (Annealing and extension) (Arya, M., Shergill, I. S., Williamson, M., Gommersall, L., Arya, N., Patel, H. R. (2005) Basic principles of real-time quantitative PCR. Expert Rev. Mol. Diagn.; 5(2):209-19; and Jozefczuk, J. and Adjaye, J. (2011) Quantitative real-time PCR-based analysis of gene expression. Methods Enzymol. 500; 99-109).
(§3) The obtained data was analysed using the ΔΔCt method, which provides the target gene expression values as fold changes in the treated sample compared with an untreated basal sample. Both samples were normalized with the relative expression of a housekeeping gene GAPDH (Glyceraldehyde 3-phosphate dehydrogenase).

[3] = Protein glycation (AGE formation), fluorimetric (Example 14); type: biochemical; settings: 0.01, 0.05, 0.1 and 0.5 mg/mL; 72 hours at 37° C.; vs negative control
Description: Briefly, 0.01, 0.05, 0.1 and 0.5 mg/mL of peptide Ac-SEQ ID NO: 1-NH2 were mixed together with a glycation agent and its corresponding substrate. Samples were incubated for 72 hours at 37° C. A fluorimetric method was used to evaluate the % of protein glycation compared to the negative control (sample only with sugar substrate).

[4] = tested on: human skin explants; assay: Ex vivo fibrillin-1 immunostaining after methylglyoxal (Example 15); settings: cream containing 1% Ac-SEQ ID NO: 1-NH2, topical 2 mg/cm^2; methylglyoxal 500 μM; day 9
Description: Briefly, human skin explants from a person were kept in survival in BEM culture medium at 37° C. in a humid, 5% CO2 atmosphere. A placebo cream and a cream containing 1% Ac-SEQ ID NO: 1-NH2, prepared according to Example 6, were applied topically on the basis of 2 μL per explant (2mg/cm^2) and spread using a small spatula on day 0 (DO), day 1, day 4, day 6 and day 8. […] To induce glycation, a solution of Methylglyoxal (MG) was incorporated in the BEM culture medium at a final concentration of 500 μM on day 4, day 6 and day 8, on the concerned batches “MG” (all samples except control untreated samples). Explants were collected at each timepoint and cut in two parts. Half was fixed in buffered formalin solution and half was frozen at −80° C.
The nuclei were counterstained with propidium iodide.

[5] = tested on: HEKa cells; assay: Genes related with response to sleep deprivation, RT-qPCR in HEKa (Example 16); type: cell-based, Human; settings: 0.01 mg/ml, 24 hours
Description: as §1
RNA (ribonucleic acid) extraction and RT-qPCR (reverse transcription quantitative polymerase chain reaction) were performed. Briefly, HEKa, HDFa or HUVEC cells were seeded in duplicate (n=2) in 6-well plates at a density of 4×10^5 cells/well (2×10^5 cells/well for HUVEC cells) and maintained at standard culture conditions (106 Medium supplemented with 1% (v/v) LSGS for HDFa cells; Medium Epilife supplemented with 1% (v/v) EDGS and 1% (v/v) penicillin/streptomycin for HEKa cells; Endothelial Cell Growth Medium for HUVEC cells; 37° C., 95% room humidity, 5% CO2) for 24 hours.
Then, cells were treated with peptide Ac-SEQ ID NO: 1-NH2 at the concentration of 0.01 mg/mL for 24 hours. Untreated cells were used as basal or negative control.
as §2, with “table 10” for “table 5”
as §3

[6] = tested on: HUVECs; assay: Genes related with response to sleep deprivation, RT-qPCR in HUVEC (Example 16); type: cell-based, Human; settings: 0.01 mg/ml, 24 hours
Description: as §1
RNA (ribonucleic acid) extraction and RT-qPCR (reverse transcription quantitative polymerase chain reaction) were performed. […]
Cells were finally lysed, and replicates were pooled together for RNA extraction using Qiagen RNeasy Mini kit following manufacturer's instructions. […] (Annealing and extension) (Arya, M., Shergill, I. S., Williamson, M., Gommersall, L., Arya, N., Patel, H. R. (2005) Basic principles of real-time quantitative PCR. Expert Rev. Mol. Diagn.; 5(2):209-19; and Jozefczuk, J. and Adjaye, J. (2011) Quantitative real-time PCR-based analysis of gene expression. Methods Enzymol. 500; 99-109).
The obtained data was analysed using the ΔΔCt method, which provides the target gene expression values as fold changes in the treated sample compared with an untreated basal sample. […]

In the case of “Ac-Arg-Arg-Gln-Met-Arg-Glu-NH2 (Ac-RRQMRE-NH2) [Ac-SEQ ID NO: 1-NH2]”, the IL-33 protein levels [1] is reported as “reduces the IL-33 protein levels produced by HDFa cells exposed to IFNγ (300 U/mL) in a dose-dependent manner”, the “COL3A1 Fold change between treated cells and basal control” value ([2]; 24 hours) is reported as 1.32 Fold change and the “LAMA1 Fold change between treated cells and basal control” value ([2]; 24 hours) is reported as 1.16 Fold change. The “TIMP2 Fold change between treated cells and basal control” value ([2]; 24 hours) was 1.35 Fold change, the “MMP1 Fold change between treated cells and basal control” value ([2]; 48 hours) was −1.30 Fold change and the “MMP3 Fold change between treated cells and basal control” value ([2]; 48 hours) was −1.69 Fold change. For the same substance, the protein glycation [3] was “able to protect from protein glycation”, the “increase in fibrillin 1 staining when compared with the MG-exposed untreated control” value [4] was 86% and the “CXCL8 Fold change between treated cells and basal control” value [5] was −1.33 Fold change. The “MTNR1A Fold change between treated cells and basal control” value [5] was 2.11 Fold change, the “SIGIRR Fold change between treated cells and basal control” value [5] was 1.27 Fold change and the “SLC2A1 Fold change between treated cells and basal control” value [5] was −1.21 Fold change. For the same substance, the “NFKB1 Fold change between treated cells and basal control” value [6] was −1.24 Fold change.
